Assay results taken from PubChem BioAssay AID504751 (National Center for Advancing Translational Sciences (NCATS), 2011).
In brackets after ≈: the same amount, converted by molar mass.

System: Kinetic aqueous solubility, PBS pH 7.4, LC-UV/MS
Experiment: Inhibitors of Cruzain: Aqueous Profiling Assay
Description: Chagas Disease is a neglected tropical disease that affects over 16 million people in Latin America. The cysteine protease cruzain is essential for the survival Trypanosoma cruzi, the parasitic agent responsible for Chagas disease. Potential intervention for T. cruzi includes the inhibition of cruzain. This bioassay will summarize the ongoing development of small molecule cruzain inhbitiors. Currently, a screen of ~200k compounds and through extensive follow-up work a probe was identified. To further characterize the probe, it was tested in in vitro ADME assays. This bioassay provides profiling data on aqueous kinetic solubility (PBS @ pH 7.4), an important measure that affects in vivo bioavailability. NIH Chemical Genomics Center [NCGC] NIH Molecular Libraries Probe Production Centers Network [MLPCN] MLSCN Grant: DA024891-01 PI Name: Dr. Brian Shoichet; University of California, San Francisco
1. 8ul of reference and test compound stock solution were added to 392ul 100mM phosphate buffer (pH 7.4) 2. Sample tubes were shaken for 1 hr (1000 rpm) at room temperature 3. Samples were centrifuged (10 min at 12000 rpm) to precipitate un-dissolved particles 4. Supernatants were transferred to new tubes 5. Concentration of the supernatant was determined by LC-UV or LC-MS/MS

How did the solubility turn out when `Cc1ccc(OCCn2c(CCNC(=O)C3CCCCC3)nc3ccccc32)cc1` was run?
The solubility was 5 µM (≈ 2.03 µg/mL).
